How the values were obtained:
[1] = tested on: Jurkat; assay: confluency relative to DMSO, 18 h (ratio); higher = more viable
Method in brief: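 Compound was applied at 1 nM–10 µM (log10 steps) for 18 h at 37 °C, 5% CO2 to Jurkat cells or to primary CD4+/CD8+ T cells that were naive or had been activated 48 h with CD3/CD28 Dynabeads. Suspension (100 µl) was then plated in 96-well plates with IncuCyte Cytotox Dye and alamarBlue and imaged hourly over 3 h (×10, five images per well). Confluency was calculated from the IncuCyte phase-contrast images using the Basic Analyzer and normalised to the mean of the control wells.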

[2] = tested on: Jurkat; assay: cytotoxicity relative to DMSO, 18 h (ratio); higher = less cell death (drugs called cytotoxic fall below 1)
Method in brief: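 The assay used Jurkat cells or naive or CD3/CD28 Dynabead-activated (48 h) primary CD4+/CD8+ T cells, incubated with compound at 1 nM–10 µM in log10 steps for 18 h at 37 °C, 5% CO2. Cytotoxicity was assessed with IncuCyte Cytotox Dye and IncuCyte fluorescence imaging, corrected for confluency and scaled to mean control signals.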

[3] = tested on: Jurkat; assay: metabolic activity relative to DMSO, 18 h (ratio); higher = more viable
Method in brief: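 Jurkat cells and primary CD4+/CD8+ T cells, naive or activated for 48 h on CD3/CD28 Dynabeads, were incubated for 18 h with compound at 1 nM–10 µM. Fluorescence was read 3.5 h after alamarBlue addition (10% v/v final) at excitation 544 nm and emission 584 nm. Metabolic activity is normalised to the mean of vehicle controls.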

Row | SMILES | confluency ([1]; 1 nM) | confluency ([1]; 10 nM) | confluency ([1]; 100 nM) | confluency ([1]; 1000 nM) | confluency ([1]; 10000 nM) | cytotoxicity ([2]; 1 nM) | cytotoxicity ([2]; 10 nM) | cytotoxicity ([2]; 100 nM) | cytotoxicity ([2]; 1000 nM) | cytotoxicity ([2]; 10000 nM) | metabolic activity ([3]; 1 nM) | metabolic activity ([3]; 10 nM) | metabolic activity ([3]; 100 nM) | metabolic activity ([3]; 1000 nM) | metabolic activity ([3]; 10000 nM)
1 | CCNC(=O)Nc1ccc(-c2nc3c(c(N4CCOCC4C)n2)CCN(C2COC2)C3)cc1 (stereo not given) [GDC-0349] | 0.992 | 0.981 | 0.955 | 0.932 | 0.873 | 0.991 | 0.972 | 0.947 | 0.887 | 0.78 | 0.925 | 0.919 | 0.886 | 0.841 | 0.798
2 | COC1=C2CC(C)CC(OC)C(O)C(C)C=C(C)C(OC(N)=O)C(OC)C=CC=C(C)C(=O)NC(=CC1=O)C2=O (stereo not given) [Geldanamycin] | 0.963 | 1.02 | 0.786 | 0.971 | 0.975 | 0.946 | 0.982 | 0.745 | 0.815 | 0.798 | 0.985 | 0.95 | 0.767 | 0.567 | 0.7
3 | Nc1ccn(C2OC(CO)C(O)C2(F)F)c(=O)n1 (stereo not given) [Gemcitabine] | 0.916 | 0.993 | 1.04 | 0.732 | 0.69 | 0.927 | 1.01 | 0.921 | 0.651 | 0.602 | 1 | 1.07 | 0.61 | 0.712 | 0.724
4 | CCN(CC)Cc1ccc2cc(COC(=O)Nc3ccc(C(=O)NO)cc3)ccc2c1 [Givinostat] | 1.05 | 0.98 | 1.05 | 1.18 | 1.2 | 1.15 | 1.01 | 1.06 | 1.03 | 1.04 | 0.902 | 0.981 | 0.969 | 0.845 | 0.762
5 | COc1ccc(S(=O)(=O)N(C(C)=O)c2ccccc2C=Cc2cc[n+]([O-])cc2)cc1 [HMN-214] | 0.983 | 0.99 | 0.993 | 0.979 | 0.694 | 1.11 | 0.94 | 0.954 | 0.982 | 0.602 | 1.11 | 0.973 | 0.813 | 0.779 | 0.503
6 | NC1CCC(NC2CC2c2ccccc2)CC1 (stereo not given) [Iadademstat] | 1.01 | 0.967 | 1.02 | 1.03 | 1.05 | 0.988 | 0.933 | 0.928 | 1.14 | 1.15 | 0.93 | 0.857 | 0.737 | 1.09 | 0.95
7 | O=C1CCC(N2Cc3c(OCc4ccc(CN5CCOCC5)cc4)cccc3C2=O)C(=O)N1 (stereo not given) [Iberdomide] | 0.898 | 0.805 | 0.811 | 0.8 | 0.823 | 0.885 | 0.749 | 0.877 | 0.796 | 0.865 | 0.987 | 0.949 | 1.02 | 1.11 | 1.21
8 | CCC(Nc1ncnc2nc[nH]c12)c1nc2cccc(F)c2c(=O)n1-c1ccccc1 (stereo not given) [Idelalisib] | 1.07 | 1.09 | 1.1 | 0.986 | 1.07 | 1.05 | 1.08 | 1.09 | 0.927 | 1 | 0.825 | 0.959 | 0.958 | 0.983 | 0.993
9 | CC(C)CC(NC(=O)CNC(=O)c1cc(Cl)ccc1Cl)B(O)O (stereo not given) [Ixazomib] | 0.945 | 0.97 | 1.12 | 0.922 | 1.09 | 0.958 | 1 | 1.03 | 0.682 | 0.631 | 0.928 | 1.04 | 0.924 | 0.382 | 0.121
10 | Cc1cc(C)cc(C(=O)NOCCCCCC(=O)NO)c1 [LMK235] | 0.982 | 1.03 | 1.06 | 1.16 | 1.3 | 0.947 | 0.991 | 1.08 | 1.04 | 1.26 | 0.997 | 0.979 | 1.04 | 0.905 | 0.694
11 | Nc1cccc2c1CN(C1CCC(=O)NC1=O)C2=O (stereo not given) [Lenalidomide] | 0.996 | 0.912 | 0.993 | 0.96 | 0.93 | 0.945 | 0.905 | 0.96 | 0.912 | 0.892 | 0.931 | 0.895 | 0.809 | 0.905 | 0.96
12 | COc1cc(C)[nH]c(=O)c1CNC(=O)c1c(C)n(C(C)C2CCN(CC(F)(F)F)CC2)c2ccccc12 (stereo not given) [Lirametostat] | 1.01 | 1.03 | 1.02 | 0.984 | 0.929 | 1 | 1 | 1.03 | 0.972 | 0.892 | 1.01 | 1.02 | 1.01 | 1.02 | 0.856
13 | CC(C)CC(C=O)NC(=O)C(CC(C)C)NC(=O)C(CC(C)C)NC(=O)OCc1ccccc1 (stereo not given) [MG-132] | 1.01 | 0.99 | 1.02 | 0.605 | 0.69 | 0.953 | 0.939 | 0.989 | 0.471 | 0.461 | 0.799 | 0.84 | 0.938 | 0.359 | 0.11
14 | O=C(O)C1(Cc2cccc(Nc3nccs3)n2)CCC(Oc2cccc(Cl)c2F)CC1 (stereo not given) [MK-5108] | 1.01 | 1.02 | 0.89 | 0.865 | 0.868 | 0.966 | 1.05 | 0.922 | 0.881 | 0.932 | 1.02 | 1.05 | 0.922 | 0.763 | 0.756
15 | O=C(O)c1ccc(Nc2ncc3c(n2)-c2ccc(Cl)cc2C(c2c(F)cccc2F)=NC3)cc1 [MLN-8054] | 0.953 | 1.06 | 1.03 | 0.879 | 0.791 | 0.913 | 1.02 | 0.967 | 0.812 | 0.623 | 0.971 | 0.993 | 0.955 | 0.913 | 0.558
16 | CN(Cc1cnc2nc(N)nc(N)c2n1)c1ccc(C(=O)NC(CCC(=O)O)C(=O)O)cc1 (stereo not given) [Methotrexate] | 0.943 | 0.828 | 0.619 | 0.576 | 0.603 | 1.05 | 0.897 | 0.666 | 0.571 | 0.585 | 1.12 | 1.08 | 1 | 0.865 | 0.746
17 | CNC(=O)c1nn(C)c2c1C(C)(C)Cc1cnc(Nc3ccc(N4CCN(C)CC4)cc3)nc1-2 [Milciclib] | 1.01 | 0.985 | 1.01 | 0.969 | 1.01 | 0.986 | 0.958 | 0.956 | 0.794 | 0.897 | 1.05 | 0.965 | 0.953 | 0.684 | 0.809
18 | Nc1ccccc1NC(=O)c1ccc(CNc2nccc(-c3cccnc3)n2)cc1 [Mocetinostat] | 1 | 1.02 | 1 | 0.76 | 0.886 | 0.997 | 1.01 | 0.975 | 0.726 | 0.636 | 0.892 | 0.841 | 0.822 | 0.747 | 0.3
19 | CCNC(=O)CC1N=C(c2ccc(Cl)cc2)c2cc(OC)ccc2-n2c(C)nnc21 (stereo not given) [Molibresib] | 1.02 | 1.03 | 1.03 | 1 | 0.879 | 0.992 | 1 | 1.07 | 0.955 | 0.848 | 0.916 | 1.06 | 1.18 | 0.878 | 0.887
20 | O=C1C=CC(=O)C2=C1C1c3ccccc3C2c2ccccc21 [NFAT activation inhibitor III] | 1 | 0.877 | 0.804 | 0.97 | 0.864 | 0.945 | 0.784 | 0.732 | 1.04 | 0.839 | 1.04 | 1.04 | 1.12 | 1.01 | 0.834
21 | CCCCN(Cc1ccc(C(=O)NO)cc1)C(=O)Nc1ccccc1 [Nexturastat A] | 0.989 | 0.978 | 0.98 | 0.935 | 0.989 | 1.05 | 1.15 | 1.07 | 0.955 | 0.92 | 1.05 | 1.15 | 1.1 | 1.02 | 0.66
22 | COC(=O)c1ccc2c(C(=Nc3ccc(N(C)C(=O)CN4CCN(C)CC4)cc3)c3ccccc3)c(O)[nH]c2c1 [Nintedanib] | 0.986 | 0.955 | 0.981 | 0.832 | 0.566 | 0.929 | 0.948 | 0.988 | 0.81 | 0.537 | 1.01 | 0.93 | 0.949 | 0.919 | 0.827
23 | NC(=O)c1cccc2cn(-c3ccc(C4CCCNC4)cc3)nc12 (stereo not given) [Niraparib] | 1.07 | 1.04 | 1.06 | 1.05 | 0.915 | 1.11 | 1.01 | 1.1 | 1.03 | 0.94 | 0.947 | 0.907 | 1.17 | 0.992 | 1.01
24 | COC(=O)Nc1nc2ccc(C(=O)c3cccs3)cc2[nH]1 [Nocodazole] | 1.02 | 1.06 | 1.14 | 0.907 | 0.731 | 1.03 | 1.08 | 1.02 | 0.807 | 0.59 | 0.881 | 1.08 | 0.621 | 0.589 | 0.554
25 | COc1ccc(C2=NC(c3ccc(Cl)cc3)C(c3ccc(Cl)cc3)N2C(=O)N2CCNC(=O)C2)c(OC(C)C)c1 (stereo not given) [Nutlin-3] | 0.971 | 0.92 | 1.01 | 0.98 | 0.963 | 0.993 | 0.951 | 0.962 | 0.985 | 0.917 | 0.983 | 1.01 | 1.02 | 0.991 | 0.84
26 | O=C(c1cc(Cc2n[nH]c(=O)c3ccccc23)ccc1F)N1CCN(C(=O)C2CC2)CC1 [Olaparib] | 0.954 | 1.02 | 0.974 | 0.975 | 0.969 | 0.942 | 1.03 | 1 | 1.01 | 0.977 | 1.08 | 1.09 | 0.911 | 0.899 | 1
27 | COc1ncc(-c2ccc3nccc(-c4ccnnc4)c3c2)cc1NS(=O)(=O)c1ccc(F)cc1F [Omipalisib] | 0.98 | 0.797 | 0.785 | 0.904 | 1.12 | 1.04 | 0.823 | 0.728 | 0.735 | 0.923 | 1.1 | 0.966 | 0.621 | 0.524 | 0.563
28 | Nc1nc2cc(CCC3CC(n4ccc5c(N)ncnc54)C(O)C3O)ccc2cc1Br (stereo not given) [Onametostat] | 0.916 | 0.951 | 0.973 | 0.978 | 0.985 | 0.949 | 0.883 | 0.975 | 0.884 | 0.982 | 1.01 | 0.982 | 1.07 | 0.979 | 0.975
29 | COC1CCC(N2C(=O)CNc3ncc(-c4ccc(C(C)(C)O)nc4)nc32)CC1 (stereo not given) [Onatasertib] | 1.12 | 1.05 | 1.07 | 0.9 | 0.675 | 1.12 | 1.07 | 1.11 | 0.859 | 0.586 | 0.857 | 0.964 | 0.935 | 0.881 | 0.73
30 | O=C(O)C(=O)O.[NH-]C1CCCCC1[NH-].[Pt+2] (stereo not given) [Oxaliplatin] | 0.84 | 0.755 | 1.01 | 0.989 | 0.969 | 0.835 | 0.765 | 1.05 | 1.04 | 1.1 | 0.909 | 0.865 | 0.936 | 0.884 | 0.991
